The target in this assay is T1, ERR1 (also known as ERR-α or ERR-1) (Homo sapiens, UniProt P11474).
T1 sequence (P11474 193-421 limits assumed): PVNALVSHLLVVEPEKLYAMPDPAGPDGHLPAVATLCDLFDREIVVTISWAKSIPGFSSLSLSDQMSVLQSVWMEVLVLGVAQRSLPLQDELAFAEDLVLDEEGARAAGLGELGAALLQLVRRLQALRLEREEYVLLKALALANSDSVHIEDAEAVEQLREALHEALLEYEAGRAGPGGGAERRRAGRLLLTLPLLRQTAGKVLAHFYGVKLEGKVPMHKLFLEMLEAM
The assay is described as follows: TR-FRET assay (disruption of co-activator peptide binding). It counts as biochemical. The conditions noted are these: 6His-tagged ERR1 LBD, GST-hSRC2 co-activator polypeptide; average of 3 independent experiments. Put shortly: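 Compound-induced loss of co-activator recruitment, read by time-resolved FRET (excitation 340 nm; 615 and 665 nm emission) after 4-18 h at 25 °C. Reagents: 6 nM ERR1LBD, 6 nM GST-SRC-2, 30 nM Eu cryptate, 7.5 nM XL665, pH 8 Tris buffer. Values: hyperbolic fits averaged over 3 independent runs.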
Background: Time-resolved FRET reads energy transfer from a long-lived donor to a nearby acceptor.

Structures are written as SMILES.

A word on the EC50: it is the concentration needed to bring the measured effect to its halfway point. Read a low EC50 as a more potent agent.

Regarding `NCC(=O)N1CCCN(C2=NC(=O)/C(=C/c3ccc4c(cnn4Cc4ccc(Cl)cc4C(F)(F)F)c3)S2)CC1` [Example 138, 2-[4-(2-Amino-acetyl)-[1,4]diazepan-1-yl]-5-[1-(4-chloro-2-trifluoromethyl-benzyl)-1H-indazol-5-ylmethylene]-thiazol-4-one], it took 19 nM to reach a half-maximal effect (EC50).

Turning to `CC(C)(C)OC[C@@H]1CN(C2=NC(=O)/C(=C/c3ccc4c(cnn4Cc4ccc(C(F)(F)F)cc4C(F)(F)F)c3)S2)CCO1` [Example 143, 5-({1-[2,4-Bis(trifluoromethyl)benzyl]-1H-indazol-5-yl}methylidene)-2-[2(S)-(tert-butoxymethyl)morpholin-4-yl]-1,3-thiazol-4(5H)-one], it took 56 nM to reach a half-maximal effect (EC50).

Molecule `O=C1N=C(N2CC3COC(=O)C3C2)S/C1=C\c1ccc2c(cnn2Cc2ccc(Cl)cc2C(F)(F)F)c1` (centres unmarked) [Example 144, 5-{5-[1-(4-Chloro-2-trifluoromethyl-benzyl)-1H-indazol-5-ylmethylene]-4-oxo-4,5-dihydro-thiazol-2-yl}-hexahydro-furo[3,4-c]pyrrol-1-one] had a concentration giving a half-maximal response (EC50) of 14 nM.

`O=C(O)CC1CCN(C2=NC(=O)/C(=C/c3ccc4c(cnn4Cc4ccc(Cl)cc4C(F)(F)F)c3)S2)C1` (centres unmarked) [Example 145, (1-{5-[1-(4-Chloro-2-trifluoromethyl-benzyl)-1H-indazol-5-ylmethylene]-4-oxo-4,5-dihydro-thiazol-2-yl}-pyrrolidin-3-yl)-acetic acid] gave an EC50 of 21 nM.

`O=C1N=C(N2CCS(=O)(=O)CC2)S/C1=C\c1ccc2c(cnn2Cc2ccc(Cl)cc2C(F)(F)F)c1` [Example 146, 5-[1-(4-Chloro-2-trifluoromethyl-benzyl)-1H-indazol-5-ylmethylene]-2-(1,1-dioxidothiomorpholin-4-yl)-thiazol-4-one] gave a 50% effective concentration (EC50) of 14 nM.

In turn, `Cc1nnc(C)n1C1CCN(C2=NC(=O)/C(=C/c3ccc4c(cnn4Cc4ccc(Cl)cc4C(F)(F)F)c3)S2)CC1` [Example 147, 5-[1-(4-Chloro-2-trifluoromethyl-benzyl)-1H-indazol-5-ylmethylene]-2-[4-(3,5-dimethyl-[1,2,4]triazol-4-yl)-piperidin-1-yl]-thiazol-4-one] gave an EC50 of 11 nM.

Consider `O=C1N=C(N2CCSCC2)S/C1=C\c1ccc2c(cnn2Cc2ccc(Cl)cc2C(F)(F)F)c1` [Example 148, 5-[1-(4-Chloro-2-trifluoromethyl-benzyl)-1H-indazol-5-ylmethylene]-2-thiomorpholin-4-yl-thiazol-4-one], for which the EC50 was determined as 33 nM.

Molecule `O=C1N=C(N2CC(F)C2)S/C1=C\c1ccc2c(cnn2Cc2ccc(Cl)cc2C(F)(F)F)c1` [Example 149, 5-[1-(4-Chloro-2-trifluoromethyl-benzyl)-1H-indazol-5-ylmethylene]-2-(3-fluoro-azetidin-1-yl)-thiazol-4-one] gave an EC50 of 55 nM.

As to `O=C1N=C(N2CCC(n3cnnn3)CC2)S/C1=C\c1ccc2c(cnn2Cc2ccc(Cl)cc2C(F)(F)F)c1` [Example 150, 5-[1-(4-Chloro-2-trifluoromethyl-benzyl)-1H-indazol-5-ylmethylene]-2-(4-tetrazol-1-yl-piperidin-1-yl)-thiazol-4-one], the EC50 turned out to be 48 nM.

As to `O=C1N=C(N2CCNCC(O)C2)S/C1=C\c1ccc2c(cnn2Cc2ccc(C(F)(F)F)cc2C(F)(F)F)c1` (centres unmarked) [Example 151, 5-[1-(2,4-Bis-trifluoromethyl-benzyl)-1H-indazol-5-ylmethylene]-2-(6-hydroxy-[1,4]diazepan-1-yl)thiazol-4-one], the concentration for a half-maximal effect (EC50) stood at 25.7 nM.

In the case of `COC(=O)CCNC(=O)C1CN(C2=NC(=O)/C(=C/c3ccc4c(cnn4Cc4ccc(Cl)cc4C(F)(F)F)c3)S2)C1` [Example 152, 3-[(1-{5-[1-(4-Chloro-2-trifluoromethyl-benzyl)-1H-indazol-5-ylmethylene]-4-oxo-4,5-dihydro-thiazol-2-yl}-azetidine-3-carbonyl)-amino]-propionic acid methyl ester], the EC50 amounted to 24 nM.
